No end group written: not given here.
Assays:
dogs with canine DM = experiment: Dog diabetes mellitus trials; assay type: in vivo; conditions: 10 mg once a week
Procedure: A total of 48 dogs took part in the trials. Dogs where put into two groups of 24: one group was injected with the full 10 mg Thymosin beta 4 protein (TB4) once a week; and the other group was injected with 10 mg TB4-7 once a week for four weeks.
Diagnosis criteria of DM and the pre-requisites for study inclusion were:
(1) clinical signs consistent with canine DM, such as polydipsia, polyuria, polyphagia, and weight loss; (2) persistent and 24-hour fasting hyperglycemia (>200 mg/dL) for more than 2 days; (3) persistent glycosuria for more than 2 days; and (4) insulin supplementation required to maintain normal glucose levels.
Glycosylated hemoglobin and blood glucose levels where measured at before every injection and seven days after the last injection.

type 2 diabetic patients = experiment: TB4-7 trial: randomized, double-blind, placebo-controlled 2-month trial in type 2 diabetic patients; assay type: in vivo, human; conditions: 10 mg s.c. twice a week for 2 months
Procedure: The inventors have performed a single-center, randomized, double-blind, placebo-controlled 2-month trial of twice a week s.c. injection of 10 mg of TB4-7 (a peptide having the amino acid sequence LKKTETQ (SEQ ID NO:1)) in type 2 diabetic patients inadequately treated with diet/lifestyle or stable doses of common hypoglycemics for at least 3 months. The results from an interim 2 month report of that trial is provided in this example.
Patients with type 2 diabetes for >/=1 year were entered into 2 strata of hemoglobin A(1c) (HbA(1c)) levels: Stratum 1: 8.0% to 9.9%; and Stratum 2: 10.0% to 12.0%.
All subjects began a 1-month single-blind placebo run-in phase, followed by randomization in a 2:1 ratio of active treatment: placebo, to 2 months of double-blind treatment with either TB4-7 or saline placebo. Concurrent oral agents were continued unchanged throughout the study.
The primary outcome was the change in HbA(1c) from randomization; results of each stratum were analyzed independently. […] 14 subjects entered stratum 1 and 12 entered stratum 2.

[1] = Week 0 (before first injection)
[2] = Week 4 (seven days after last injection)

| Substance | Glucose (dogs with canine DM; [1]) | HbA1c (dogs with canine DM; [1]) | Glucose (dogs with canine DM; Week 1) | HbA1c (dogs with canine DM; Week 1) | Glucose (dogs with canine DM; Week 2) | HbA1c (dogs with canine DM; Week 2) | Glucose (dogs with canine DM; Week 3) | HbA1c (dogs with canine DM; Week 3) | Glucose (dogs with canine DM; [2]) | HbA1c (dogs with canine DM; [2]) | adverse events (type 2 diabetic patients) | tolerability (type 2 diabetic patients) |
| --- | --- | --- | --- | --- | --- | --- | --- | --- | --- | --- | --- | --- |
| Thymosin beta 4 (MSDKPDMAEIEKFDKSKLKKTETQEKNPLPSKETIEQEKQAGES; listed as Homo sapiens) [TB4, the full Thymosin beta 4 protein (TB4)] | 298 ± 64 mg/dL | 7.7 ± 2.2% | 310 ± 78 mg/dL | 7.8 ± 2.3% | 296 ± 64 mg/dL | 7.7 ± 2.2% | 275 ± 72 mg/dL | 7.2 ± 2.6% | 213 ± 82 mg/dL | 6.1 ± 2.9% | – | – |
| LKKTETQ [TB4-7, LKKTETQ] | – | – | – | – | – | – | – | – | – | – | No adverse events | well tolerated |

Reference: patent US8895505B2, “Method of treatment of type 2 diabetes” (AdiStem Ltd., priority 2009, dated 2014)
